Experimental data as given in US12522594B2, “2-heteroaryl-3-oxo-2,3-dihydropyridazine-4-carboxamides for the treatment of cancer” (Deutsches Krebsforschungszentrum, priority 2017, dated 2026).
Values joined by “and” are separate entries in the source; they are usually repeats but may differ in a detail not shown here. Equal values may be shown once.

How the values were obtained:
AHR [1] = molecular target: T1, AHR (Homo sapiens, UniProt P35869); test: In vitro assay 3: AHR-regulated CYP1A1 expression in human cell line (U937, qPCR, KA stimulation); format: cell-based; details: U937 cells, 200 uM KA, 6 hours, CYP1A1 expression by qPCR; read-out: Assay 3: Hum CYP1A1 Antagonism IC50
T1 sequence (P35869 11-848): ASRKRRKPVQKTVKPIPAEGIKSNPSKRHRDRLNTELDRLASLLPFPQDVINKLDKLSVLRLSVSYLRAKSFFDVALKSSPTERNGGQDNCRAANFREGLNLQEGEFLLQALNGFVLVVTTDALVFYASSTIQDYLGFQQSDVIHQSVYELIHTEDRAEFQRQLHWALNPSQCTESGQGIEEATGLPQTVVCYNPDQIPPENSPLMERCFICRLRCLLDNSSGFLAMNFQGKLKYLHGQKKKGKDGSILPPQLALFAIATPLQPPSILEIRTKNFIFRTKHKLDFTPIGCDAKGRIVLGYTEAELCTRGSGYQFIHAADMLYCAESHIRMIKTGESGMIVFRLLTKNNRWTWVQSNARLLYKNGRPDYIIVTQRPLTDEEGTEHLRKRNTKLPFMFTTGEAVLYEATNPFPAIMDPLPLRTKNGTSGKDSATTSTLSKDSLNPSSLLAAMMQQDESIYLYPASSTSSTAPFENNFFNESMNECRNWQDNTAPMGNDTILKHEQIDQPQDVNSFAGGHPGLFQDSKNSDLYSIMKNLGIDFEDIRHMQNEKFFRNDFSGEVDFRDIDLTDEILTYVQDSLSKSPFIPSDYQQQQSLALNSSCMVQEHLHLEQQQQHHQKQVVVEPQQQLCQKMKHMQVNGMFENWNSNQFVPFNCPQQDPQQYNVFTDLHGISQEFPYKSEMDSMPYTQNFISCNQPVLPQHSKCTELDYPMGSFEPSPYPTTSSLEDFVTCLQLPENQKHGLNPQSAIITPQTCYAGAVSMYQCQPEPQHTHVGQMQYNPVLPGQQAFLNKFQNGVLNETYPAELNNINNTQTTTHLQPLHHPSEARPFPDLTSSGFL
How it was run: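 U937 human monocytic cells were stimulated with 200 uM KA for 6 h, with or without compound at eight concentrations from 1 nM to 3 uM, in duplicate. CYP1A1 mRNA was quantified by Taqman qPCR as fold expression normalised to HPRT. Unstimulated cells served as negative control.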

B16F10-OVA cells [2] = test: In vivo assay: efficacy of an example compound and a CTLA4 axis antagonist, B16F10-OVA tumor in C57/BL6J mice; set-up: species or system mouse; details: tumor volume treatment/control; single agent plus vehicle or isotype; AhR antagonist 30 mg/kg QD p.o.; aCTLA4 1 mg/kg q3d i.p.
Procedure: In Vivo Assay: Efficacy of Compositions Comprising an Example Compound and a CTLA4 Axis Antagonist
Animals are ordered from Charles River Sulzfeld, Germany and assigned to the study at the age of 8 weeks. Animal husbandry, feeding and health conditions are according to animal welfare guidelines. B16F10-OVA cells are B16F10 mouse melanoma cells that were virally transduced to express ovalbumin. B16F10-OVA cells were cultivated with RPMI 1640 with 10% FCS+2.5 μg/ml blasticidin and splitted at least 3 times before inoculation. The antibiotic blasticidin is removed 1 passage before inoculation. Female C57/BL6J mice were inoculated with 10000 B16F10-OVA tumor cells in 50% medium/50% matrigel subcutaneously in the flank. After 7 days the animals were randomized and therapeutic treatment started on day 8. The AhR antagonists were dissolved in Ethanol/Solutol/Water (10/40/50) and given at 30 mg/kg, QD, p.o. The anti-CTLA4 antibody was dosed at 1 mg/kg, q3d, i.p. The anti-CTLA4 antibody is mouse-specific with syrian hamster IgG1 isotype (Clone: 9H10 (anti mouse CTLA4), Fa. BioXCell BE0131). […]
Tumor size was measured using calipers determining length (a) and width (b). Tumor volume was calculated according to: […]
Based on tumor volume efficacy was calculated dividing tumor volume of the respective treatment group by tumor volume of the control group (T/C).

AHR [3] = molecular target: T1, AHR; test: In vitro assay 1: antagonism in human cell line (transactivation assay, U87 cells prestimulated with kynurenic acid, DRE firefly luciferase reporter); format: cell-based; set-up: host or cells: U87 glioblastoma cells, stably transfected with DRE firefly luciferase and renilla reporter constructs; details: 150 uM kynurenic acid, 20 hours, read-out: Assay 1: AHR-luc Hum Antagonism IC50
How it was run: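 Antagonism measured after kynurenic acid prestimulation in U87 cells that express AHR endogenously and stably harbor a firefly luciferase gene under DRE control plus a constitutive renilla construct. Positive and negative controls served for normalization.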

AHR [4] = molecular target: T1, AHR; test: In vitro assay 2: agonism in human cell line (transactivation assay, U87 cells, DRE firefly luciferase reporter); format: cell-based; set-up: host or cells: U87 glioblastoma cells, stably transfected with DRE firefly luciferase and renilla reporter constructs; details: no kynurenic acid, 20 hours, read-out: Assay 2: AHR-luc Hum Agonism IC50
How it was run: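 Agonist readout: DRE firefly luciferase, with constitutive renilla reporter, in stably transfected U87 cells expressing AHR endogenously. Normalization used positive control (300 uM kynurenic acid) and negative control.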

human monocytes = test: In vitro assay 4: rescue of TNFα production from human primary monocytes (LPS + KA); format: cell-based; details: one value per donor; for Individual Donors Conc of highest rescue: concentration (of 1, 0.3, 0.1 uM tested) at which highest TNFα rescue was observed; for Individual Donors % rescue TNFα normalised to ref cmpd: human monocytes, 10 ng/mL LPS + 200 uM KA, 18 hours, highest percent rescue relative to highest rescue with GNF-351
Procedure: In Vitro Assay 4: Rescue of TNFα Production from Human Primary Monocytes
The ability of the substances to enhance immune cell activity was determined. The substances were tested for their capacity to reverse KA-induced inhibition of TNFα production by LPS-stimulated human monocytes. Human monocytes were purified by negative selection from donor PBMCs using Miltenyi beads and seeded at 2×10^5 cells/well in complete growth medium (RPMI 1640, 10% FCS). Monocytes were incubated with 10 ng/mL LPS (O127:B8, #L4516, Sigma) and 200 uM KA (#3375, Sigma) and substances were added at concentrations of 1 uM, 0.3 uM and 0.1 uM and cultured for 18 hours. LPS alone served as the positive control. TNFα production in the supernatant was measured by Meso Scale Discovery immunoassay and the ability of the substances to rescue TNFα production was calculated as a percentage of LPS stimulation and KA-induced inhibition and normalized to the donor-specific response with the reference AHR antagonist compound GNF-351 (Smith et al., J Pharmacol Exp Ther, 2011, 338(1):318-27).

B16F10-OVA cells [5] = test: In vivo assay: efficacy of an example compound and a PD-1/-L1 axis antagonist, B16F10-OVA tumor in C57/BL6N mice; set-up: species or system mouse; details: tumor volume treatment/control; single agent plus vehicle or isotype; AhR antagonist 30 mg/kg QD p.o.; aPDL1 (TPP-3911) 10 mg/kg q3d i.p.
Description: In Vivo Assay: Efficacy of Compositions Comprising an Example Compound and a PD-1/-L1 Axis Antagonist
Animals are ordered from Charles River Sulzfeld, Germany and assigned to the study at the age of 7 weeks. Animal husbandry, feeding and health conditions are according to animal welfare guidelines. B16F10-OVA cells are B16F10 mouse melanoma cells that were virally transduced to express ovalbumin. […] The antibiotic blasticidin is removed 1 passage before inoculation. Female C57/BL6N mice were inoculated with 100000 B16F100VA tumor cells in 50% medium/50% matrigel subcutaneously in the flank. After 5 days the animals were randomized and therapeutic treatment started.
The anti-PDL1 antibody is a chimera of the variable domain of atezolizumab with murine IgG1 CH1, 2 and 3 domains.

Row | Structure (SMILES) | IC50 (AHR [1]) [nM] | IC50 (AHR [3]) [nM] | IC50 (AHR [4]) [nM] | T/C (B16F10-OVA cells [2]) | Individual Donors Conc of highest rescue (human monocytes) | Individual Donors % rescue TNFα normalised to ref cmpd (human monocytes) | T/C (B16F10-OVA cells [5])
1 | C[C@@H](CO)NC(=O)c1cc(-c2ccc(Cl)cc2)nn(-c2cnn(C)c2)c1=O [Example 17, 6-(4-Chlorophenyl)-N-[(2S)-1-hydroxypropan-2-yl]-2-(1-methyl-1H-pyrazol-4-yl)-3-oxo-2,3-dihydropyridazine-4-carboxamide] | – | – | – | 0.90 | 1 µM | 438% and 296% | 0.92
2 | CCC(CO)NC(=O)c1cc(-c2ccc(C)cc2)nn(-c2cnn(C)c2)c1=O (single isomer, unassigned) [Example 5, N-(1-Hydroxybutan-2-yl)-6-(4-methylphenyl)-2-(1-methyl-1H-pyrazol-4-yl)-3-oxo-2,3-dihydropyridazine-4-carboxamide] | 3.45 | 5.99 | > 20000 | – | 1 µM | 67% and 99% and 61% | –
3 | O=C(NC[C@@H](O)CO)c1cc(-c2ccc(C(F)(F)F)cc2)nn(-c2cccnc2)c1=O [Example 113, N-[(2R)-2,3-Dihydroxypropyl]-3-oxo-2-(pyridin-3-yl)-6-[4-(trifluoromethyl)phenyl]-2,3-dihydropyridazine-4-carboxamide] | 105 | 48.3 | > 20000 | – | 1 µM | 91% and 51% | –
4 | O=C(NCC(O)C(F)F)c1cc(-c2ccc(Cl)cc2)nn(-c2cccnc2)c1=O (racemic) [Example 79, 6-(4-Chlorophenyl)-N-[(2RS)-3,3-difluoro-2-hydroxypropyl]-3-oxo-2-(pyridin-3-yl)-2,3-dihydropyridazine-4-carboxamide] | 80.4 | 39.5 | > 20000 | – | 0.3 µM and 0.1 µM | 76% and 63% | –

Further compounds by falling IC50 (AHR [1]), results first:

Row | IC50 (AHR [1]) [nM] | IC50 (AHR [3]) [nM] | IC50 (AHR [4]) [nM] | Structure (SMILES) | T/C (B16F10-OVA cells [2]) | Individual Donors Conc of highest rescue (human monocytes) | Individual Donors % rescue TNFα normalised to ref cmpd (human monocytes) | T/C (B16F10-OVA cells [5])
5 | 15.8 | 19 | > 20000 | Cc1ccc(-c2cc(C(=O)N[C@@H](C)CO)c(=O)n(-c3cnn(C)c3)n2)cc1 [Example 8, N-[(2S)-1-Hydroxypropan-2-yl]-6-(4-methylphenyl)-2-(1-methyl-1H-pyrazol-4-yl)-3-oxo-2,3-dihydropyridazine-4-carboxamide] | – | 1 μM (4×) and 0.1 μM | 99% and 55% and 104% and 109% and 36% | –
6 | 11.3 | 14.2 | > 20000 | Cn1cc(-n2nc(-c3ccc(Cl)cc3)cc(C(=O)NCC(O)C(F)(F)F)c2=O)cn1 (stereo not shown) [Example 18, 6-(4-Chlorophenyl)-2-(1-methyl-1H-pyrazol-4-yl)-3-oxo-N-(3,3,3-trifluoro-2-hydroxypropyl)-2,3-dihydropyridazine-4-carboxamide] | – | 1 μM (2×) and 0.3 μM (2×) | 83% and 73% and 76% and 105% | –
7 | 7.61 | 9.04 | > 20000 | O=C(N[C@@H]1CCC[C@@H]1O)c1cc(-c2ccc(Cl)cc2)nn(-c2cccnc2)c1=O [Example 138, 6-(4-Chlorophenyl)-N-[(1R,2S)-2-hydroxycyclopentyl]-3-oxo-2-(pyridin-3-yl)-2,3-dihydropyridazine-4-carboxamide] | – | 0.1 µM and 0.3 µM | 49% and 84% | –
8 | 7.29 | 6.23 | > 20000 | O=C(NC[C@H](O)C(F)(F)F)c1cc(-c2ccc(OC(F)(F)F)cc2)nn(-c2cccnc2)c1=O [Example 131, 3-Oxo-2-(pyridin-3-yl)-N-[(2S)-3,3,3-trifluoro-2-hydroxypropyl]-6-[4-(trifluoromethoxy)phenyl]-2,3-dihydropyridazine-4-carboxamide] | 1.05 | – | – | –
9 | 2.49 | 3.69 | > 20000 | CC(C)[C@@H](CO)NC(=O)c1cc(-c2ccc(Cl)cc2)nn(-c2cnn(C)c2)c1=O [Example 16, 6-(4-Chlorophenyl)-N-[(2S)-1-hydroxy-3-methylbutan-2-yl]-2-(1-methyl-1H-pyrazol-4-yl)-3-oxo-2,3-dihydropyridazine-4-carboxamide] | – | 1 µM | 249% and 165% | –
